Experimental data: patent US9593149B2, “Amylin and calcitonin receptor agonist” (Novo Nordisk A/S, priority 2014, dated 2017)
pEC50, pIC50: −log10 of the molar value. Peptide text beside a SMILES is read from it. * marks the point of attachment. C18 diacid = O=C(O)CCCCCCCCCCCCCCCCC(=O)*

Tests used:
[1] = biological target: T1, human calcitonin (a) receptor, BHK570 cells (Homo sapiens, UniProt P30988); assay: Assay (II)b functional CRE-luciferase assay without albumin, human calcitonin receptor; format: cell-based; details: Tested without HSA; read-out: hCTR funct. EC50
T1 construct: host or cells: BHK570
T1 sequence (P30988 25-474): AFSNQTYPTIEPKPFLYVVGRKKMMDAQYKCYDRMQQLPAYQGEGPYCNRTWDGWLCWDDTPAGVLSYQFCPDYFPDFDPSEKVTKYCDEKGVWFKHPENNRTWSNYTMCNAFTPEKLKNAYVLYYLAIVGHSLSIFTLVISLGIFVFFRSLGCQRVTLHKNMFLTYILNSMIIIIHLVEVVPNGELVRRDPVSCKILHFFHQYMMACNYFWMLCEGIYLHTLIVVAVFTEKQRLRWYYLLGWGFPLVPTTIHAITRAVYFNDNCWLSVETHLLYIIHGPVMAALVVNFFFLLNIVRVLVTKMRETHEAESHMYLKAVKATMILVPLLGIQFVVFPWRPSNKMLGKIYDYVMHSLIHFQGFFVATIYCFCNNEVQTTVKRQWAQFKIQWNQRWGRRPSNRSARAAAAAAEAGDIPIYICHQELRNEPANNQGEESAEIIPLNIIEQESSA
Excerpt: (§1) Assay(II)b—Human Calcitonin and Amylin Receptor Assay without Albumin
(§2) 1. Luciferase Assay Outline
(§3) Activation of calcitonin and amylin (co-expression of calcitonin receptor and receptor activity modifying proteins (RAMP)) receptors lead to increased intracellular concentrations of cAMP. Consequently, transcription is activated by promoters containing multiple copies of the cAMP response element (CRE). It is thus possible to measure amylin activity by the use of a CRE luciferase reporter gene introduced into BHK cells also expressing calcitonin or amylin receptors.
(§4) 2. Construction of Calcitonin (a)—and Amylin 3(a)—Receptor/CRE-Luc Cell Line.
(§5) A BHK570 cell line was stably transfected with the human calcitonin receptor and a CRE-responsive luciferase reporter gene (Hollex-1 cell line, obtained from ZymoGenetics described in U.S. Pat. No. 5,622,839). The cell line was further transfected with RAMP-3, using standard methods. This turns the calcitonin receptor into an amylin 3(a) receptor. Methotrexate, Neomycin, and Hygromycin are selection markers for luciferase, the calcitonin receptor, and RAMP-3, respectively. To prepare the batches of frozen cells used in the luciferase assay described in the section below, the cells were cultured in growth medium (DMEM with 10% FBS, 1% Pen/Strep and 1 mM Napyruvate). […] Cells at approximately 80-90% confluence were washed with PBS and loosened from the plates with Versene. After centrifugation (2 min, 1300 rpm, in a Centrion Scientific centriuge C2 series with a BRK 5510 rotor head), the cell pellet was dissolved in 10% DMSO, 30% FBS and 60% growth medium and frozen (−80° C.) until utilization.
(§6) The day before the experiment, BHK calcitonin (a) receptor- or amylin 3(a)-receptor/CRE-luc cells were thawed, washed twice, and seeded in 40 μl growth medium on white 384 well culture plates (4.000 cells/well). On the assay day, the cells were washed 3 times in assay media (Dulbecco media W/o phenol red, 500 ml (Gibco, 11880-028); 0.1% ovalbumin; 10 mM Hepes pH 7.4; 1× Glutamin; 1% Pen/Strep). Then, 30 μl/well of sample diluted in assay buffer was added. After 3 hours of incubation at 37° C. and 5% CO2, the reaction was terminated by adding 30 μl/well SteadyLite Plus™. The plates were shaken at 300 rpm for 5 min at RT. Then, the plates were sealed and incubated at room temperature for 30 minutes. Finally, luminescence was tested on a TopCounter (Packard) in SPC (single photon counting) mode.
(§7) Additional Comment Regarding Use of Data Retrieved Via this Method
(§8) For the same reasons, measurements made in Assay IIa should not be compared in Assay IIb.

[2] = biological target: T2, human amylin 3(a) receptor (human calcitonin receptor + RAMP-3), BHK570 cells (Homo sapiens, UniProt O60896+P30988); assay: Assay (II)b functional CRE-luciferase assay without albumin, human amylin receptor; format: cell-based; details: Tested without HSA; read-out: hAmylin-R funct. EC50
T2 construct: host or cells: BHK570
Excerpt: as §1, §2, §3, §4, §5, §6, §7, §8

[3] = biological target: T3, human amylin receptor (human calcitonin receptor + human RAMP3), BHK tk'ts 13 cells (Homo sapiens, UniProt O60896+P30988); assay: Assay (Va) binding to the human amylin receptor (whole cell); details: read-out: hAmylin-R binding IC50
T3 construct: expressed in transfected cells; host or cells: BHK tk'ts 13
Protocol: The day before the assay the cells were Seeded into Poly-D-Lysin coated 384W Opaque White, BD BioCoat plates (10000 cells/well) and Incubated overnight at 37° C., 5% CO2, 95% humidity.

[4] = Assay (IV) determination of solubility; format: physicochemical
Protocol: Assay (IV)—Determination of Solubility
The mimylin peptide was dissolved in water at ˜500 nmol/ml and mixed 1:1 with a series of buffers (100 mM glycylglycine pH 3.0, 100 mM glycylglycine pH 4.0, 100 mM glycylglycine pH 5.0, 100 mM bistrispropane pH 6.0, 100 mM bistrispropane pH 6.5, 100 mM bistrispropane pH 7.0, 100 mM bistrispropane pH 7.5, 100 mM bistrispropane pH 8.0).

[5] = Assay (XV) subcutaneous PK in LYD-pigs, co-formulated or co-dosed with liraglutide; format: in vivo; details: administered as co-formulations to LYD pigs
Protocol: The studies were performed in female LYD pigs of SPF origin delivered from Lars Jonson, Hillerødvej 70, Lynge.
Before the animals arrived, the animal rooms and pens were cleaned and disinfected with Virkon S. During the study, the animal rooms were cleaned and washed regularly.
The pigs were group housed during the acclimatisation period. The pigs were fitted with a central venous catheter while under anaesthesia and after the single housed after catheterization in pens ≧3.1 m^2 with straw as bedding. The temperature in the rooms was set at 20−23° C. and the relative humidity to 30-70%. The rooms were illuminated to give a cycle of 12 hours light and 12 hours darkness. Light was on from 07.00 to 19.00 h.
The formulations was prepared similarly and filled in cartridges in all cases.
The animals were dosed subcutaneously as follows.
The s.c. dosing was performed in 4 mm depth, in a site of injection which was secured on beforehand by ultrasound to avoid muscular tissue or heavy vascularization. Dosing was made using NovoPen®4 and needle Novofine 28 G and a needle stopper to ensure 4 mm depth of injection. The needle was kept in the subcutis for 10 seconds after the injection to secure deposition of compound. […] The co-formulation was administered as one injection. Study was performed as a cross over study with adequate wash out between dosings.
Blood was sampled at predefined time points for up till 15 days post dosing to adequately cover the full plasma concentration-time profile of the mimylin derivative. Blood samples were drawn from a central venous catheter to jugularis made through the catheter which was afterwards flushed with 10 ml 0.9% NaCl.
For each blood sampling time point approximately 0.8 mL of whole blood was collected in a 1.5 mL EDTA coated tube, and the tube was gently turned to allowing mixing of the sample with the anticoagulant. Blood samples (for example 0.8 mL) were collected in EDTA buffer (8 mM) and then centrifuged at 4° C. and 2000 G for 10 minutes. Plasma was pipetted into Micronic tubes on dry ice, and kept at −20° C. until analysis.
Individual plasma concentration-time profiles were analysed by a non-compartmental model in Phoenix WinNonlin version 6.3 (Pharsight Inc., Mountain View, Calif., USA).
The area under the plasma concentration versus time curve (AUC, [time×concentration]) was calculated (by the Pharsight programme) after subcutaneous administration, typically until 240-288 hours post dosing, or until last measured concentration. The AUC was calculated and given as AUCinf-pred and dose normalized.
Results of co-formulation studies in LYD-pigs are summarized below

T3 sequence (O60896 24-148, one chain of several): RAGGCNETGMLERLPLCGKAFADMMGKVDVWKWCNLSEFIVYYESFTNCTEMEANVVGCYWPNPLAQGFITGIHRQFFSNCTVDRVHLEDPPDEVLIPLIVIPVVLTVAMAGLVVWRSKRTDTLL
T2 sequence (O60896 24-148, one chain of several): as above

| pEC50 [1] | pEC50 [2] | pIC50 [3] | solubility at 18 h ([4]; bistrispropane buffer, pH 6.5) | solubility at 18 h ([4]; bistrispropane buffer, pH 7.5) | solubility at 18 h ([4]; bistrispropane buffer, pH 6.0) | solubility at 18 h ([4]; bistrispropane buffer, pH 7.0) | solubility at 18 h ([4]; bistrispropane buffer, pH 8.0) | solubility at 18 h ([4]; glycylglycine buffer, pH 3.0) | solubility at 18 h ([4]; glycylglycine buffer, pH 4.0) | solubility at 18 h ([4]; glycylglycine buffer, pH 5.0) | SMILES | effect on PK profile of the co-formulated peptide [5] |
| --- | --- | --- | --- | --- | --- | --- | --- | --- | --- | --- | --- | --- |
| 11.22 | 11.15 | 9.05 | ≥ 200 µM | ≥ 200 µM | ≥ 200 µM | ≥ 200 µM | ≥ 200 µM | ≥ 200 µM | ≥ 200 µM | ≥ 200 µM | CC[C@H](C)[C@H](NC(=O)[C@@H](NC(=O)[C@H](C)NC(=O)[C@@H](NC(=O)[C@H](CO)NC(=O)[C@H](CC(C)C)NC(=O)[C@H](CCC(=O)O)NC(=O)[C@H](CO)NC(=O)[C@H](C)NC(=O)[C@H](CCC(=O)O)NC(=O)CCCCCCCCCCCCCCCCC(=O)O)[C@@H](C)O)C(C)C)C(=O)NCC(=O)N[C@@H](CCCNC(=N)N)C(=O)N[C@@H](CC(C)C)C(=O)N[C@@H](CO)C(=O)N[C@@H](C)C(=O)N[C@@H](CCC(=O)O)C(=O)N[C@@H](CC(C)C)C(=O)N[C@@H](Cc1c[nH]cn1)C(=O)N[C@@H](CCC(=O)O)C(=O)N[C@@H](CC(C)C)C(=O)N[C@@H](C)C(=O)N[C@H](C(=O)N[C@@H](CC(C)C)C(=O)N1CCC[C@H]1C(=O)N[C@@H](CCCNC(=N)N)C(=O)N[C@H](C(=O)N[C@@H](CCC(=O)O)C(=O)N[C@H](C(=O)NCC(=O)N1CCC[C@H]1C(=O)N[C@@H](CCC(=O)O)C(=O)N[C@@H](CO)C(=O)N1CCC[C@H]1C(N)=O)[C@@H](C)O)[C@@H](C)O)[C@@H](C)O [compound 26, [N-terminal(C18 diacid), 9V, 10I]mimylin] ({C18 diacid}-EASELSTAVIGRLSAELHELATLPRTETGPESP-NH2) | – |
| – | – | – | – | – | – | – | – | – | – | – | CCCCCCCCCCCCCCCC(=O)N[C@@H](CCC(=O)NCCCC[C@H](NC(=O)[C@H](C)NC(=O)[C@H](C)NC(=O)[C@H](CCC(N)=O)NC(=O)CNC(=O)[C@H](CCC(=O)O)NC(=O)[C@H](CC(C)C)NC(=O)[C@H](Cc1ccc(O)cc1)NC(=O)[C@H](CO)NC(=O)[C@H](CO)NC(=O)[C@@H](NC(=O)[C@H](CC(=O)O)NC(=O)[C@H](CO)NC(=O)[C@@H](NC(=O)[C@H](Cc1ccccc1)NC(=O)[C@@H](NC(=O)CNC(=O)[C@H](CCC(=O)O)NC(=O)[C@H](C)NC(=O)[C@@H](N)Cc1cnc[nH]1)[C@@H](C)O)[C@@H](C)O)C(C)C)C(=O)N[C@@H](CCC(=O)O)C(=O)N[C@@H](Cc1ccccc1)C(=O)N[C@H](C(=O)N[C@@H](C)C(=O)N[C@@H](Cc1c[nH]c2ccccc12)C(=O)N[C@@H](CC(C)C)C(=O)N[C@H](C(=O)N[C@@H](CCCNC(=N)N)C(=O)NCC(=O)N[C@@H](CCCNC(=N)N)C(=O)NCC(=O)O)C(C)C)[C@@H](C)CC)C(=O)O [Liraglutide, N^ε26-[(4S)-4-carboxy-4-(hexadecanoylamino)butanoyl]-[Arg^34]-GLP-1-(7-37)-peptide, reference compound] | not affect the PK profile of Ex. compound 2 or 46 |
| 11.22 | 10.96 | 8.93 | – | – | – | – | – | – | – | – | CC(C)C[C@H](NC(=O)CNC(=O)[C@H](CO)NC(=O)[C@@H](N)CC(C)C)C(=O)N[C@@H](CO)C(=O)N[C@H](C(=O)N[C@@H](C)C(=O)N[C@H](C(=O)N[C@@H](CC(C)C)C(=O)NCC(=O)N[C@@H](CCCNC(=N)N)C(=O)N[C@@H](CC(C)C)C(=O)N[C@@H](CO)C(=O)N[C@@H](CCC(N)=O)C(=O)N[C@@H](CCC(=O)O)C(=O)N[C@@H](CC(C)C)C(=O)N[C@@H](Cc1c[nH]cn1)C(=O)N[C@@H](CCC(=O)O)C(=O)N[C@@H](CC(C)C)C(=O)N[C@@H](CCC(N)=O)C(=O)N[C@H](C(=O)N[C@@H](Cc1ccc(O)cc1)C(=O)N1CCC[C@H]1C(=O)N[C@@H](CCCNC(=N)N)C(=O)N[C@H](C(=O)N[C@@H](CCC(=O)O)C(=O)N[C@H](C(=O)NCC(=O)N[C@@H](CO)C(=O)N[C@@H](CCC(N)=O)C(=O)N[C@H](C(=O)N[C@@H](Cc1ccc(O)cc1)C(N)=O)[C@@H](C)O)[C@@H](C)O)[C@@H](C)O)[C@@H](C)O)C(C)C)[C@@H](C)O [127bb, H—LSGLSTAVLGRLSQELHELQTYPRTETGSQTY—NH2] (H-LSGLSTAVLGRLSQELHELQTYPRTETGSQTY-NH2) | – |
